From patent US9469650B2, “Melampomagnolide B derivatives” (BOARD OF TRUSTEES OF THE UNIVERSITY OF ARKANSAS, priority 2013, dated 2016)

Key:
SW-620 = assay: panel of 60 human tumor cell lines, growth inhibition (Colon Cancer); conditions: SW-620; Log10 Concentration −8.0
TK-10 = assay: panel of 60 human tumor cell lines, growth inhibition (Renal Cancer); conditions: TK-10
HS 578T = assay: panel of 60 human tumor cell lines, growth inhibition (Breast Cancer); conditions: for Percent Growth: HS 57BT
BT-549 = assay: as above
T-47D = assay: as above; conditions: T-47D
OVCAR-3 = assay: panel of 60 human tumor cell lines, growth inhibition (Ovarian Cancer); conditions: OVCAR-3
OVCAR-5 = assay: as above; conditions: OVCAR-5
A549/ATCC = assay: panel of 60 human tumor cell lines, growth inhibition (Non-Small Cell Lung Cancer); conditions: A549/ATCC
NCI-H322M = assay: as above
NCI-H522 = assay: as above; conditions: NCI-H522
[1] = 81-549, Log10 Concentration −4.0
[2] = 81-549, Log10 Concentration −5.0
[3] = 81-549, Log10 Concentration −6.0
[4] = 81-549, Log10 Concentration −7.0
[5] = 81-549, Log10 Concentration −8.0

C=C1C(=O)O[C@H]2[C@H]1CC/C(COC(=O)N1CCN(C)CC1)=C\CC[C@@]1(C)O[C@@H]21 [JVM 2-44]
Percent Growth (SW-620): 98%
GI50 (TK-10): 3.91 µM
TGI (TK-10): 1.53E−5
Mean Optical Densities (TK-10; Log10 Concentration −4.0): 0.069
Percent Growth (TK-10; Log10 Concentration −4.0): −94%
Mean Optical Densities (TK-10; Log10 Concentration −5.0): 1.338
Percent Growth (TK-10; Log10 Concentration −5.0): 21%
Mean Optical Densities (TK-10; Log10 Concentration −6.0): 2.166
Percent Growth (TK-10; Log10 Concentration −6.0): 92%
Mean Optical Densities (TK-10; Log10 Concentration −7.0): 2.198
Percent Growth (TK-10; Log10 Concentration −7.0): 95%
Mean Optical Densities (TK-10; Log10 Concentration −8.0): 2.185
Percent Growth (TK-10; Log10 Concentration −8.0): 94%
GI50 (HS 578T): 16.7 µM
TGI (HS 578T): >1.00E−4
Percent Growth (HS 578T; Log10 Concentration −4.0): 5%
Percent Growth (HS 578T; Log10 Concentration −5.0): 63%
Percent Growth (HS 578T; Log10 Concentration −6.0): 90%
Percent Growth (HS 578T; Log10 Concentration −7.0): 86%
Percent Growth (HS 578T; Log10 Concentration −8.0): 90%
Mean Optical Densities (HS 578T; Log10 Concentration −4.0): 1.235
Mean Optical Densities (HS 578T; Log10 Concentration −5.0): 1.827
Mean Optical Densities (HS 578T; Log10 Concentration −6.0): 2.096
Mean Optical Densities (HS 578T; Log10 Concentration −7.0): 2.057
Mean Optical Densities (HS 578T; Log10 Concentration −8.0): 2.099
TGI (BT-549; 81-549): 1.81E−5
Mean Optical Densities (BT-549; [1]): 0.180
Percent Growth (BT-549; [1]): −86%
Mean Optical Densities (BT-549; [2]): 1.522
Percent Growth (BT-549; [2]): 30%
Mean Optical Densities (BT-549; [3]): 1.985
Percent Growth (BT-549; [3]): 84%
Mean Optical Densities (BT-549; [4]): 1.951
Percent Growth (BT-549; [4]): 80%
Mean Optical Densities (BT-549; [5]): 2.028
Percent Growth (BT-549; [5]): 89%
GI50 (T-47D): 4.52 µM
TGI (T-47D): 1.94E−5
Mean Optical Densities (T-47D; Log10 Concentration −4.0): 0.323
Percent Growth (T-47D; Log10 Concentration −4.0): −56%
Mean Optical Densities (T-47D; Log10 Concentration −5.0): 0.946
Percent Growth (T-47D; Log10 Concentration −5.0): 23%
Mean Optical Densities (T-47D; Log10 Concentration −6.0): 1.660
Percent Growth (T-47D; Log10 Concentration −6.0): 102%
Mean Optical Densities (T-47D; Log10 Concentration −7.0): 1.593
Percent Growth (T-47D; Log10 Concentration −7.0): 94%
Mean Optical Densities (T-47D; Log10 Concentration −8.0): 1.664
Percent Growth (T-47D; Log10 Concentration −8.0): 102%
GI50 (OVCAR-3): 3.86 µM
TGI (OVCAR-3): 1.59E−5
Mean Optical Densities (OVCAR-3; Log10 Concentration −4.0): 0.031
Percent Growth (OVCAR-3; Log10 Concentration −4.0): −94%
Mean Optical Densities (OVCAR-3; Log10 Concentration −5.0): 0.743
Percent Growth (OVCAR-3; Log10 Concentration −5.0): 24%
Mean Optical Densities (OVCAR-3; Log10 Concentration −6.0): 1.396
Percent Growth (OVCAR-3; Log10 Concentration −6.0): 87%
Mean Optical Densities (OVCAR-3; Log10 Concentration −7.0): 1.594
Percent Growth (OVCAR-3; Log10 Concentration −7.0): 107%
Mean Optical Densities (OVCAR-3; Log10 Concentration −8.0): 1.551
Percent Growth (OVCAR-3; Log10 Concentration −8.0): 102%
GI50 (OVCAR-5): 13.4 µM
TGI (OVCAR-5): 3.03E−5
Mean Optical Densities (OVCAR-5; Log10 Concentration −4.0): 0.201
Percent Growth (OVCAR-5; Log10 Concentration −4.0): −73%
Mean Optical Densities (OVCAR-5; Log10 Concentration −5.0): 1.240
Percent Growth (OVCAR-5; Log10 Concentration −5.0): 68%
Mean Optical Densities (OVCAR-5; Log10 Concentration −6.0): 1.400
Percent Growth (OVCAR-5; Log10 Concentration −6.0): 89%
Mean Optical Densities (OVCAR-5; Log10 Concentration −7.0): 1.404
Percent Growth (OVCAR-5; Log10 Concentration −7.0): 90%
Mean Optical Densities (OVCAR-5; Log10 Concentration −8.0): 1.415
Percent Growth (OVCAR-5; Log10 Concentration −8.0): 91%
GI50 (A549/ATCC): 20.5 µM
TGI (A549/ATCC): 6.23E−5
Mean Optical Densities (A549/ATCC; Log10 Concentration −4.0): 0.267
Percent Growth (A549/ATCC; Log10 Concentration −4.0): −21%
Mean Optical Densities (A549/ATCC; Log10 Concentration −5.0): 1.536
Percent Growth (A549/ATCC; Log10 Concentration −5.0): 82%
Mean Optical Densities (A549/ATCC; Log10 Concentration −6.0): 1.748
Percent Growth (A549/ATCC; Log10 Concentration −6.0): 97%
Mean Optical Densities (A549/ATCC; Log10 Concentration −7.0): 1.802
Percent Growth (A549/ATCC; Log10 Concentration −7.0): 101%
Mean Optical Densities (A549/ATCC; Log10 Concentration −8.0): 1.778
Percent Growth (A549/ATCC; Log10 Concentration −8.0): 99%
GI50 (NCI-H322M): 16.2 µM
TGI (NCI-H322M): 5.44E−5
Mean Optical Densities (NCI-H322M; Log10 Concentration −4.0): 0.569
Percent Growth (NCI-H322M; Log10 Concentration −4.0): −25%
Mean Optical Densities (NCI-H322M; Log10 Concentration −5.0): 1.434
Percent Growth (NCI-H322M; Log10 Concentration −5.0): 70%
Mean Optical Densities (NCI-H322M; Log10 Concentration −6.0): 1.650
Percent Growth (NCI-H322M; Log10 Concentration −6.0): 93%
Mean Optical Densities (NCI-H322M; Log10 Concentration −7.0): 1.624
Percent Growth (NCI-H322M; Log10 Concentration −7.0): 91%
Mean Optical Densities (NCI-H322M; Log10 Concentration −8.0): 1.649
Percent Growth (NCI-H322M; Log10 Concentration −8.0): 93%
GI50 (NCI-H522): 1540 nM
TGI (NCI-H522): 3.55E−5
Mean Optical Densities (NCI-H522; Log10 Concentration −4.0): 0.194
Percent Growth (NCI-H522; Log10 Concentration −4.0): −78%
Mean Optical Densities (NCI-H522; Log10 Concentration −5.0): 0.338
Percent Growth (NCI-H522; Log10 Concentration −5.0): −62%
Mean Optical Densities (NCI-H522; Log10 Concentration −6.0): 1.747
Percent Growth (NCI-H522; Log10 Concentration −6.0): 76%
Mean Optical Densities (NCI-H522; Log10 Concentration −7.0): 1.925
Percent Growth (NCI-H522; Log10 Concentration −7.0): 92%
Mean Optical Densities (NCI-H522; Log10 Concentration −8.0): 1.900
Percent Growth (NCI-H522; Log10 Concentration −8.0): 89%
